Experiments:
KCNQ2/3 channels = KCNQ2/3 channels (Homo sapiens, UniProt O43525+O43526); experiment: Relative ion permeability of KCNQ2/3 channels (pseudo-bi-ionic substitution, GRb/GK); format: cell-based; conditions: MTX 30 µM
Description: For relative permeability studies, currents were recorded in response to a single pulse to +40 mV for 5 s, followed by pulses between −80 mV and +40 mV at 20 mV intervals, from a holding potential of −80 mV, to yield a current–voltage relationship. According to the Goldman–Hodgkin–Katz (GHK) voltage equation:2 Erev=RT∕FlnPKK^+O+PNaNaO+PClCli/PKK^+i+PNaNai+PClClo, where Erev is the absolute reversal potential and P is the permeability. This permits calculation of the relative permeability of each ion if concentrations on either side of the membrane are known. A modified version of this equation was used here to determine relative permeability of two ions in a system in which only the extracellular ion concentration was known. Thus, relative permeability of Rb^+, Cs^+, and Na^+ compared to K^+ ions was calculated for all channels by plotting the I/V relationships for each channel with each extracellular ion (100 mM) and comparing them to that with 100 mM extracellular K^+ ion to yield a change in reversal potential (ΔErev) for each ion compared to that of K^+. Permeability ratios for each ion compared to K^+ were then calculated as3 ΔErev=Erev,X-Erev,K=RT/zFlnPX/PK
For calculating Rb^+/K^+ permeability (Fig. 3g), tail currents were elicited by a single pulse to +40 mV, followed by a pulse at −80 mV, from a holding potential of −80 mV in 98 mM [K^+] and then 98 mM [Rb^+]. […]

[1] = test system: pentylene tetrazole-induced seizures; experiment: PTZ chemoconvulsant assay; format: in vivo, mouse; conditions: mice
Description: We compared anticonvulsant activities of test compounds in male C57BL/6 mice (Charles River) aged 2–3 months. Mice were housed and used according to the recommendations in the Guide for the Care and Use of Laboratory Animals of the National Institutes of Health (NIH Publication, 8th edition, 2011). The study protocol was approved by the Institutional Animal Care and Use Committee of University of California, Irvine, which confirmed that all relevant ethical regulations were adhered to. Chemicals were sourced from Sigma (St. Louis, MO, USA) . A pentylene tetrazole (PTZ) chemoconvulsant assay was used[54]. […] Following the PTZ injection, mice were caged individually and an observer (GWA) blinded to the drug used recorded, over 20 min, clonic and tonic seizure incidence, and seizure-related mortality.
All values are expressed as mean ± SEM. Chi-squared analysis was used to compare seizure-related mortality in mice. One-way ANOVA was applied for all other tests; if multiple comparisons were performed, a post-hoc Tukey’s HSD test was performed following ANOVA. All p-values were two-sided. Statistical significance was defined as p < 0.05.

KCNQ1 = KCNQ1 (Homo sapiens, UniProt P51787); design: method as in PMID 27997884; conditions: cited from earlier work
KCNQ1, sequence (P51787 whole entry): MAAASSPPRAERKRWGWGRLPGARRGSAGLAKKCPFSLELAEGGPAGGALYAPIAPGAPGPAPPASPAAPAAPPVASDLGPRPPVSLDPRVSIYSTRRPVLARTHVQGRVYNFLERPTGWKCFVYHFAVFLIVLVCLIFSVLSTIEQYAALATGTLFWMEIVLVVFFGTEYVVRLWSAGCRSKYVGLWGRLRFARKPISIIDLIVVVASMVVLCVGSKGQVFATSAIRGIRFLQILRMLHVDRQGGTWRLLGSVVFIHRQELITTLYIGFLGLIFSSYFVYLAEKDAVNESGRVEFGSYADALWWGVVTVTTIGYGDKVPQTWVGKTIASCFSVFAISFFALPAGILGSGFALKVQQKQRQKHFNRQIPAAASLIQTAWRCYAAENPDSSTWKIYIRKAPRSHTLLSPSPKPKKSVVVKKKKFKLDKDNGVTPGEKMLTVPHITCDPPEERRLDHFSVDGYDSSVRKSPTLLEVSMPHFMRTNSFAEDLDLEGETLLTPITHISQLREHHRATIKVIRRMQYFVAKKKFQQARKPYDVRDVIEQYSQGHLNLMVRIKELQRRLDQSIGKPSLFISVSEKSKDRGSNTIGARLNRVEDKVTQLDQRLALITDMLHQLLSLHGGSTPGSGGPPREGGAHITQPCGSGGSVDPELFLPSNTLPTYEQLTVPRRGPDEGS

KCNQ5 = KCNQ5 (Homo sapiens, UniProt Q9NR82); experiment: cell-based; format: cell-based
Description: (§1) cRNA transcripts encoding human KCNA1, KCNQ1, KCNQ2, KCNQ3, KCNQ4, or KCNQ5 were generated by in vitro transcription using the T7 polymerase message machine kit (Thermo Fisher Scientific), after vector linearization, from cDNA sub-cloned into plasmids incorporating X. laevis β-globin 5′ and 3′ UTRs flanking the coding region to enhance translation and cRNA stability. cRNA was quantified by spectrophotometry. Mutant cDNAs were generated by site-directed mutagenesis using a QuikChange kit according to manufacturer’s protocol (Stratagene, San Diego, CA) and corresponding cRNAs prepared as above. Defolliculated stage V and VI X. laevis oocytes (Ecocyte Bioscience, Austin, TX) were injected with Kv channel α subunit cRNAs (10 ng total per oocyte). Oocytes were incubated at 16 °C in Barth’s saline solution (Ecocyte) containing penicillin and streptomycin, with daily washing, for 3–5 days prior to two-electrode voltage-clamp (TEVC) recording.
(§2) Oocytes were placed in a small-volume oocyte bath (Warner) and viewed with a dissection microscope. Chemicals were sourced from Sigma. Bath solution was (in mM): 96 NaCl, 4 KCl, 1 MgCl2, 1 CaCl2, 10 HEPES (pH 7.6). […] MTX (DMSO), sorbic acid (ethanol), and glutaconic acid (molecular grade H2O) were stored at −20 °C as 1 M stocks. Oleamide was stored as a 1 mM stock in ethanol at 4 °C. Palmitic acid was conjugated with bovine serum albumin as a 1 mM stock and stored at −20 °C. All compounds were diluted to working concentrations each experimental day. All compounds were introduced to the recording bath via gravity perfusion at a constant flow of 1 ml/min for 3 min prior to recording. Pipettes were of 1–2 MΩ resistance when filled with 3 M KCl. Currents were recorded in response to pulses between −80 and +40 mV at 20 mV intervals, or a single pulse to +40 mV, from a holding potential of −80 mV, to yield current–voltage relationships, current magnitude, and for quantifying activation rate. TEVC data analysis was performed with Clampfit10.2 (Molecular Devices) and Graphpad Prism software (GraphPad, San Diego, CA, USA); values are stated as mean ± SEM. Normalized tail currents were plotted versus prepulse voltage and fitted with a single Boltzmann function:1 g=A1-A2/1+expV12-Vy+A2, where g is the normalized tail conductance, A1 is the initial value at −∞, A2 is the final value at +∞, V1/2 is the half-maximal voltage of activation, and Vs the slope factor. Activation and deactivation kinetics were fitted with single-exponential functions.

KCNQ4 = KCNQ4 (Homo sapiens, UniProt P56696); experiment: cell-based; format: cell-based
Description: as §1, §2

KCNQ3* (KCNQ3-A315T) = KCNQ3* (KCNQ3-A315T) (Homo sapiens, UniProt O43525, A315T); experiment: cell-based; format: cell-based
KCNQ3* (KCNQ3-A315T), sequence (O43525 whole entry A315T, looked up): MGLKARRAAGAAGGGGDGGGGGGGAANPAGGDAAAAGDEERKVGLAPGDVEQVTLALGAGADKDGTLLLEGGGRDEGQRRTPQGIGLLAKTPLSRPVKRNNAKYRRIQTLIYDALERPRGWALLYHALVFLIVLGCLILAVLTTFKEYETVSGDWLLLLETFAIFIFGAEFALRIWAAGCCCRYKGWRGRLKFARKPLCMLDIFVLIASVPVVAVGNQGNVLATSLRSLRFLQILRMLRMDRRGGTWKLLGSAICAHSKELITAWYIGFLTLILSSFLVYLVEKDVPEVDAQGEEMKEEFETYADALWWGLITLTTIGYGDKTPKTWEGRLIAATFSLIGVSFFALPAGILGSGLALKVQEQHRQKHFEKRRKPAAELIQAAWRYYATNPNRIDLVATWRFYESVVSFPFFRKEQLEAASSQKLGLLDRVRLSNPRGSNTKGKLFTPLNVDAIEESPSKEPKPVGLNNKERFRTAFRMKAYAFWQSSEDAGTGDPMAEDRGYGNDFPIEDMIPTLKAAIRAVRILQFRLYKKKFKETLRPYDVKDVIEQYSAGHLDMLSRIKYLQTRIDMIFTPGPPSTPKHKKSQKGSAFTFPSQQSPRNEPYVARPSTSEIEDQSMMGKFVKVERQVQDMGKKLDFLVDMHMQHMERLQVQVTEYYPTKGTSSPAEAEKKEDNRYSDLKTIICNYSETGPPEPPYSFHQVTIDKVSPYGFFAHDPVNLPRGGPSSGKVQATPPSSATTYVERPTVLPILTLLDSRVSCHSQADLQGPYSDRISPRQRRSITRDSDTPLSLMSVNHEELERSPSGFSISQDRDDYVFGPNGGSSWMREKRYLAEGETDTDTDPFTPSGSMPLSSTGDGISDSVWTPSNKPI
Description: as §1, §2

Structure (SMILES): CC(=O)c1c(O)c(C)c(O)c(Cc2c(O)c3c(c(C(=O)/C=C/c4ccccc4)c2O)OC(C)(C)C=C3)c1O [MTX, mallotoxin]
- GRb/GK (ratio of Rb+ conductance to K+ conductance) (KCNQ2/3 channels; KCNQ2/3, baseline 0.75 ± 0.10): 0.52 ± 0.06
- relative ion permeability of KCNQ2/3 compared to K+ (KCNQ2/3 channels; 100 mM extracellular ion): increased relative permeability of KCNQ2/3 to Na^+ and Cs^+, and decreased permeability to Rb^+
- clonic seizure incidence ([1]; 10 mg/kg i.p. alone): neither compound reduced clonic seizures alone
- clonic seizure incidence ([1]; 20 mg/kg i.p., 30 min before 80 mg kg−1 PTZ): halved
- suppression of PTZ-induced tonic seizures ([1]; individually): ineffective
- effect on KCNQ1 (KCNQ1): activated
- EC50 (KCNQ5): 67.1 µM
- KCNQ5 current increase at −60 mV (KCNQ5; 100 µM): eight-fold
- Non-normalized tail current V0.5 (KCNQ5; KCNQ5, 1 µM): -49.3 ± 1.2 mV
- Normalized tail current V0.5 (KCNQ5; KCNQ5, 1 µM): -49.9 ± 2.1 mV
- Slope (KCNQ5; KCNQ5, 1 µM): 8.3 ± 2.1 mV
- Non-normalized tail current V0.5 (KCNQ5; KCNQ5, 3 µM): -51.7 ± 1.8 mV
- Normalized tail current V0.5 (KCNQ5; KCNQ5, 3 µM): -51.1 ± 2.3 mV
- Slope (KCNQ5; KCNQ5, 3 µM): 8.5 ± 2.1 mV
- Non-normalized tail current V0.5 (KCNQ5; KCNQ5, 10 µM): -51.9 ± 0.8 mV
- Normalized tail current V0.5 (KCNQ5; KCNQ5, 10 µM): -51.5 ± 3.2 mV
- Slope (KCNQ5; KCNQ5, 10 µM): 8.6 ± 2.9 mV
- Non-normalized tail current V0.5 (KCNQ5; KCNQ5, 30 µM): -55.9 ± 0.8 mV
- Normalized tail current V0.5 (KCNQ5; KCNQ5, 30 µM): -55.6 ± 3.8 mV
- Slope (KCNQ5; KCNQ5, 30 µM): 8.8 ± 3.6 mV
- shift in midpoint voltage of activation (KCNQ5; KCNQ5, 30 µM): −14 mV
- Non-normalized tail current V0.5 (KCNQ5; KCNQ5, 100 µM): -71.1 ± 2.6 mV
- Normalized tail current V0.5 (KCNQ5; KCNQ5, 100 µM): -71.6 ± 2.1 mV
- EC50 (KCNQ4): 20.2 µM
- Non-normalized tail current V0.5 (KCNQ4; KCNQ4, 0.1 µM): -17.1 ± 8.1 mV
- Normalized tail current V0.5 (KCNQ4; KCNQ4, 0.1 µM): -17.0 ± 1.6 mV
- Slope (KCNQ4; KCNQ4, 0.1 µM): 14.1 ± 1.6 mV
- τ act, -40 mV (KCNQ4; KCNQ4, 0.1 µM): 941 ± 52 ms
- τ deact, -80 mV (KCNQ4; KCNQ4, 0.1 µM): 924 ± 223 ms
- Non-normalized tail current V0.5 (KCNQ4; KCNQ4, 1 µM): -18.1 ± 9.0 mV
- Normalized tail current V0.5 (KCNQ4; KCNQ4, 1 µM): -18.1 ± 1.9 mV
- Slope (KCNQ4; KCNQ4, 1 µM): 15.0 ± 1.9 mV
- τ act, -40 mV (KCNQ4; KCNQ4, 1 µM): 878 ± 78 ms
- τ deact, -80 mV (KCNQ4; KCNQ4, 1 µM): 891 ± 234 ms
- Non-normalized tail current V0.5 (KCNQ4; KCNQ4, 3 µM): -20.5 ± 9.8 mV
- Normalized tail current V0.5 (KCNQ4; KCNQ4, 3 µM): -20.1 ± 1.3 mV
- Slope (KCNQ4; KCNQ4, 3 µM): 15.6 ± 1.9 mV
- τ act, -40 mV (KCNQ4; KCNQ4, 3 µM): 851 ± 70 ms
- τ deact, -80 mV (KCNQ4; KCNQ4, 3 µM): 861 ± 240 ms
- Non-normalized tail current V0.5 (KCNQ4; KCNQ4, 10 µM): -25.3 ± 9.7 mV
- Normalized tail current V0.5 (KCNQ4; KCNQ4, 10 µM): -25.6 ± 1.9 mV
- Slope (KCNQ4; KCNQ4, 10 µM): 15.9 ± 1.9 mV
- τ act, -40 mV (KCNQ4; KCNQ4, 10 µM): 847 ± 94 ms
- τ deact, -80 mV (KCNQ4; KCNQ4, 10 µM): 906 ± 293 ms
- Non-normalized tail current V0.5 (KCNQ4; KCNQ4, 30 µM): -32.9 ± 9.7 mV
- Normalized tail current V0.5 (KCNQ4; KCNQ4, 30 µM): -32.1 ± 1.9 mV
- Slope (KCNQ4; KCNQ4, 30 µM): 14.4 ± 1.8 mV
- shift in midpoint voltage of activation (KCNQ4; KCNQ4, 30 µM): −17 mV
- τ act, -40 mV (KCNQ4; KCNQ4, 30 µM): 865 ± 108 ms
- τ deact, -80 mV (KCNQ4; KCNQ4, 30 µM): 905 ± 283 ms
- Non-normalized tail current V0.5 (KCNQ4; KCNQ4, 100 µM): -31.3 ± 9.4 mV
- Normalized tail current V0.5 (KCNQ4; KCNQ4, 100 µM): -31.5 ± 1.3 mV
- Slope (KCNQ4; KCNQ4, 100 µM): 16.4 ± 3.2 mV
- τ act, -40 mV (KCNQ4; KCNQ4, 100 µM): 1092 ± 170 ms
- τ deact, -80 mV (KCNQ4; KCNQ4, 100 µM): 1197 ± 446 ms
- EC50 (KCNQ3* (KCNQ3-A315T)): 13 µM
- Non-normalized tail current V0.5 (KCNQ3* (KCNQ3-A315T); KCNQ3*, 1 µM): -56.1 ± 4.2 mV
- Normalized tail current V0.5 (KCNQ3* (KCNQ3-A315T); KCNQ3*, 1 µM): -56.4 ± 1.6 mV
- τ act, -40 mV (KCNQ3* (KCNQ3-A315T); KCNQ3*, 1 µM): 552 ± 98 ms
- τ deact, -80 mV (KCNQ3* (KCNQ3-A315T); KCNQ3*, 1 µM): 290 ± 51 ms
- Non-normalized tail current V0.5 (KCNQ3* (KCNQ3-A315T); KCNQ3*, 3 µM): -57.4 ± 5.3 mV
- Normalized tail current V0.5 (KCNQ3* (KCNQ3-A315T); KCNQ3*, 3 µM): -57.3 ± 1.4 mV
- τ act, -40 mV (KCNQ3* (KCNQ3-A315T); KCNQ3*, 3 µM): 489 ± 55 ms
- τ deact, -80 mV (KCNQ3* (KCNQ3-A315T); KCNQ3*, 3 µM): 263 ± 29 ms
- Non-normalized tail current V0.5 (KCNQ3* (KCNQ3-A315T); KCNQ3*, 10 µM): -59.5 ± 4.2 mV
- Normalized tail current V0.5 (KCNQ3* (KCNQ3-A315T); KCNQ3*, 10 µM): -59.5 ± 1.0 mV
- τ act, -40 mV (KCNQ3* (KCNQ3-A315T); KCNQ3*, 10 µM): 421 ± 26 ms
- τ deact, -80 mV (KCNQ3* (KCNQ3-A315T); KCNQ3*, 10 µM): 244 ± 17 ms
- Non-normalized tail current V0.5 (KCNQ3* (KCNQ3-A315T); KCNQ3*, 30 µM): -62.1 ± 3.9 mV
- Normalized tail current V0.5 (KCNQ3* (KCNQ3-A315T); KCNQ3*, 30 µM): -62.3 ± 1.2 mV
- shift in midpoint voltage of activation (KCNQ3* (KCNQ3-A315T); KCNQ3*, 30 µM): −9 mV
- τ act, -40 mV (KCNQ3* (KCNQ3-A315T); KCNQ3*, 30 µM): 388 ± 20 ms
- τ deact, -80 mV (KCNQ3* (KCNQ3-A315T); KCNQ3*, 30 µM): 240 ± 18 ms
- Non-normalized tail current V0.5 (KCNQ3* (KCNQ3-A315T); KCNQ3*, 100 µM): -65.2 ± 3.9 mV
- Normalized tail current V0.5 (KCNQ3* (KCNQ3-A315T); KCNQ3*, 100 µM): -66.2 ± 2.1 mV
- τ act, -40 mV (KCNQ3* (KCNQ3-A315T); KCNQ3*, 100 µM): 403 ± 36 ms
- τ deact, -80 mV (KCNQ3* (KCNQ3-A315T); KCNQ3*, 100 µM): 269 ± 30 ms
